Assay results from paper PMC6682311 (ChemMedChem, 2019).

Key:
[1] = in vitro; conditions: male, CD-1, mouse, microsomes, pH 7.4
[2] = system: M. smegmatis mc^2155 (ATCC 700084); test: Broth microdilution determination of minimum inhibitory concentrations; assay type: cell-based, Mycobacterium smegmatis
[3] = system: M. smegmatis biofilms; test: Biofilm inhibition assay; assay type: cell-based, Mycobacterium smegmatis
[4] = system: M. smegmatis biofilms; test: Synergy dispersion assay of compound with INH/RIF on pre-formed biofilms; assay type: cell-based, Mycobacterium smegmatis; conditions: INH 256 + RIF 128 µg mL^−1
[5] = in vitro; conditions: mouse, plasma, pH 7.4
[6] = Microsome stability assay; conditions: male, CD-1, mouse, microsomes, pH 7.4
[7] = Table 3, trifluoromethyl 2-AIs, no unit printed for these values

Row | SMILES | fold reduction in EC50 with antibiotics versus compound alone [4] | half-life at 100 µM [5] [h] | half-life at 100 µM [6] [h] | MIC [2, 7] | further results
1 | CCOc1ccc(NC(C)=O)cc1 [Phenacetin] |  |  |  |  | half-life at 100 µM [1]: 0.59 h
2 | CCCCCCc1ccc(-c2nc(N)[nH]c2C(F)(F)F)cc1 [Compound 12g, 4-(4-Hexylphenyl)-5-(trifluoromethyl)-1H-imidazol-2-amine] | three-fold reduction | 4.43 | 0.978 |  | MIC ([2]; Table 2, 4,5 substituted 2-AIs, unit printed in text b20 only): >200 µM; IC50 ([3]; Table 2, highest concentration tested 50 µM): 6.8 ± 0.9 µM
3 | CCCOc1ccc(-c2nc(N)[nH]c2C(F)(F)F)cc1 [Compound 12h, 4-(4-Propoxyphenyl)-5-(trifluoromethyl)-1H-imidazol-2-amine] |  |  |  | 200 | 
4 | CCCCOc1ccc(-c2nc(N)[nH]c2C(F)(F)F)cc1 [Compound 12i, 4-(4-Butoxyphenyl)-5-(trifluoromethyl)-1H-imidazol-2-amine] |  |  |  | 200 | 
5 | CC(C)NCC(O)COc1cccc2ccccc12 (centres unmarked) [Propanolol, reference compound] |  | 0.343 |  |  | 
6 | CCCCCOc1ccc(-c2nc(N)[nH]c2C(F)(F)F)cc1 [Compound 12j, 4-(4-(Pentyloxy)phenyl)-5-(trifluoromethyl)-1H-imidazol-2-amine] | four-fold reduction | 4.8 | 1.02 | 200 | IC50 ([3]; Table 3): 7.4 ± 0.6 µM
